{"source": "patent US8129340B2", "about": "“Inhibitors of protein phosphatase 1, GADD34 and protein phosphatase 1/GADD34 complex, preparation and uses thereof” (Institut Gustave Roussy, priority 2006, dated 2012)", "key": {"[1]": {"system": "CT26 tumour cells", "experiment": "Anti-tumour vaccination: dying treated CT26 cells injected in one flank, later challenge with live tumour cells", "assay_type": "in vivo, BALB/c mice"}, "[2]": {"system": "cell surface CRT", "experiment": "Fluorescence detection of cell surface CRT on CT26 cells (cytofluorometry)", "assay_type": "cell-based, murine", "settings": "agent alone; for induction of ecto-CRT and/or ecto-Erp57: tumour cells", "description": "FIG. 1SA, FIG. 1SB: Kinetics of CRT exposure. CT26 cells were treated with mitoxantrone for the indicated period, followed by immunofluorescence staining with a CRT-specific antibody and cytofluorometric analysis.\nFIG. 2E: Correlation between CRT exposure and immunogenicity. The surface exposure of CRT was determined by immunofluorescence cytometry while gating on viable (propidium iodine-negative) cells (inserts) and was correlated with the immunogenicity of cell death (as determined in FIG. 1). CO, control; Tg, thapsigargin; Tu, tunicamycin.\nFIG. 5E: Kinetics of CRT exposure determined by FACS analysis after incubation of cells with the indicated agents.\nFIG. 5F-FIG. 5G: PP1/GADD34 inhibitors render cell immunogenic via CRT. Tumour cells were first transfected with a control siRNA or a CRT-specific siRNA and then treated in vitro with etoposide, alone or in combination with PP1/GADD34 inhibitors. […] The results represent the % of tumour free mice (comprising a total of 12 to 18 mice per group).\nCT26 cells (on a glass slide or in 12-well plates) were first washed with FACS buffer (1×PBS, 5% fetus bovine serum, and 0.1% sodium azide) and then incubated with rabbit anti-mouse CRT antibody (1:100, Stressgen) in FACS buffer at 4° C. for 30 min. Cells reacted with anti-rabbit IgG (H+L) Alexa fluor 488-conjugates (1:500) in FACS buffer at 4° C. for 30 min. After washing three times with FACS buffer, surface CRT was detected by cytofluorometric analysis on a FACS Vantage. In some experiments, cells were fixed with 4% paraformaldehyde, counterstained with Hoechst (2 μM; Sigma), followed by fluorescence microscopic assessment with a Leica IRE2 microscope equipped with a DC300F camera."}, "[3]": {"system": "CT26 colon cancer cells", "experiment": "In vivo anti-cancer vaccination: treated tumour cells in one flank and live tumour cells in opposite flank simultaneously", "parameters": "species or system BALB/c mice", "settings": "sham-coated cells treated with etoposide", "description": "FIG. 4A: In vivo anti-cancer vaccination depends on CRT. CT26 colon cancer cells were transfected with the indicated siRNAs, then treated with rCRT and/or mitoxantrone (as in FIG. 3D) and the anti-tumour response was measured by simultaneously challenging BALB/c mice with mitoxantrone treated tumour cells in one flank and untreated live tumour cells in the opposite flank.\nFIG. 4D: CRT-mediated amelioration of the immune response against etoposide-treated tumour cells. CT26 cells were treated for 24 h with etoposide (or PBS) and rCRT was optionally absorbed to the cell surface (inserts), followed by simultaneous injection of the etoposide ±rCRT-treated tumour cells and live tumour cells in opposite flanks and monitoring of tumour growth.\nTumours were evaluated weekly, using a caliper."}, "[4]": {"system": "CT26 tumours", "experiment": "Intratumoural treatment of established CT26 tumours in immunocompetent mice", "assay_type": "in vivo, BALB/c mice (wild type)", "settings": "mouse, in vivo"}, "[5]": {"system": "CT26 tumours", "experiment": "Intratumoural treatment of established CT26 tumours in immunodeficient mice", "assay_type": "in vivo, athymic nu/nu Balb/c mice", "settings": "mouse, in vivo"}, "[6]": {"settings": "dying CT26 cells treated with agent injected into one flank, live tumour cells in opposite flank 8 days later"}}, "note": "Peptide text beside a SMILES is read from it. * marks the point of attachment. Cbz = O=C(OCc1ccccc1)*; CH2F = FC*"}
{"molecule": "CCCCCCCCCCCCC/C=C/[C@@H](O)[C@H](CO)NC(C)=O", "note": "[C2 ceramide, C2-ceramide]", "values": [{"measurement": "immunogenicity of cell death (protection against tumour growth, anti-tumour vaccination)", "setting": "[1]; [6]", "result": "failed to induce immunogenic apoptosis"}]}
{"molecule": "CCOc1ccc(-c2nc3ccc(-c4nc5ccc(N6CCN(C)CC6)cc5[nH]4)cc3[nH]2)cc1", "note": "[Hoechst 33342]", "values": [{"measurement": "immunogenicity of cell death (protection against tumour growth, anti-tumour vaccination)", "setting": "[1]; [6]", "result": "failed to induce immunogenic apoptosis"}]}
{"molecule": "COC(=O)C[C@H](NC(=O)[C@H](C)NC(=O)[C@@H](NC(=O)OCc1ccccc1)C(C)C)C(=O)CF", "note": "[Z-VAD-fmk] (Cbz-Val-Ala-Asp(OMe)-CH2F)", "values": [{"measurement": "effect on immunogenicity of doxorubicin-elicited cell death", "setting": "[1]; combined with doxorubicin", "result": "reduces the immunogenicity of doxorubicin-elicited cell death"}]}
{"molecule": "C[C@H]1CCC/C=C/[C@@H]2C[C@H](O)C[C@H]2[C@H](O)/C=C/C(=O)O1", "note": "[brefeldin, brefeldin A]", "values": [{"measurement": "immunogenicity of cell death (protection against tumour growth, anti-tumour vaccination)", "setting": "[1]; [6]", "result": "failed to induce immunogenic apoptosis"}]}
{"molecule": "COC[C@@H]([C@H](O)[C@H](O)C(=O)NCC[C@H](C)c1nc(/C=C/C[C@@H]2O[C@]3(C[C@@H](O)[C@@H]2C)O[C@H]([C@H](C[C@H](O)[C@H](C)[C@H](O)[C@H](C)/C=C(C)/C(C)=C/C=C/C(C)=C\\C#N)OC)[C@H](OP(=O)(O)O)C3(C)C)co1)N(C)C", "note": "[calyculin A]", "values": [{"measurement": "induction of immunogenic cell death by the inhibitor alone", "setting": "[1]; without cell death inducer", "result": "not sufficient to induce immunogenic cell death"}, {"measurement": "induction of CRT exposure at the cell surface", "setting": "[2]", "result": "efficiently induced"}]}
{"molecule": "CC[C@@]1(O)C(=O)OCc2c1cc1n(c2=O)Cc2cc3ccccc3nc2-1", "note": "[camptothecin]", "values": [{"measurement": "immunogenicity of cell death (protection against tumour growth, anti-tumour vaccination)", "setting": "[1]; [6]", "result": "failed to induce immunogenic apoptosis"}]}
{"molecule": "COc1cc([C@@H]2c3cc4c(cc3[C@@H](O[C@@H]3O[C@@H]5CO[C@@H](C)O[C@H]5[C@H](O)[C@H]3O)[C@H]3COC(=O)[C@H]23)OCO4)cc(OC)c1O", "note": "[etoposide]", "values": [{"measurement": "immunogenicity of cell death (protection against tumour growth, anti-tumour vaccination)", "setting": "[1]; [6]", "result": "failed to induce immunogenic apoptosis"}, {"measurement": "induction of ecto-CRT and/or ecto-Erp57", "setting": "[2]", "result": "fail to induce ecto-CRT and/or ecto-Erp57"}, {"measurement": "immunogenicity of sham-coated etoposide-treated cells", "setting": "[3]", "result": "poorly immunogenic"}, {"measurement": "therapeutic effect of single agent on established tumours, immunocompetent mice", "setting": "[4]", "result": "no major therapeutic effect"}, {"measurement": "therapeutic effect of single agent on established tumours, nu/nu mice", "setting": "[5]", "result": "no major therapeutic effect"}]}
{"molecule": "CC(=O)[C@]1(O)Cc2c(O)c3c(c(O)c2[C@@H](O[C@H]2C[C@H](N)[C@H](O)[C@H](C)O2)C1)C(=O)c1ccccc1C3=O", "note": "[idarubicin]", "values": [{"measurement": "immunogenicity of cell death (protection against tumour growth, anti-tumour vaccination)", "setting": "[1]; [6]", "result": "elicited immunogenic cell death"}]}
{"molecule": "CO[C@@]12[C@H](COC(N)=O)C3=C(C(=O)C(C)=C(N)C3=O)N1C[C@@H]1N[C@@H]12", "note": "[mitomycin C]", "values": [{"measurement": "immunogenicity of cell death (protection against tumour growth, anti-tumour vaccination)", "setting": "[1]; mouse, in vivo", "result": "failed to induce immunogenic apoptosis"}, {"measurement": "induction of CRT exposure at the cell surface", "setting": "[2]", "result": "cannot promote CRT exposure on tumor cell surface"}, {"measurement": "induction of ecto-CRT and/or ecto-Erp57", "setting": "[2]", "result": "fail to induce ecto-CRT and/or ecto-Erp57"}, {"measurement": "therapeutic effect of single agent on established tumours, immunocompetent mice", "setting": "[4]", "result": "no major therapeutic effect"}, {"measurement": "therapeutic effect of single agent on established tumours, nu/nu mice", "setting": "[5]", "result": "no major therapeutic effect"}]}
{"molecule": "C/C=C(/C)C(=O)O[C@H]1C(C)=C2[C@H]([C@@H]1OC(=O)CCCCCCC)[C@@](C)(OC(C)=O)C[C@H](OC(=O)CCC)[C@@]1(O)[C@H]2OC(=O)[C@@]1(C)O", "note": "[thapsigargin]", "values": [{"measurement": "immunogenicity of cell death (protection against tumour growth, anti-tumour vaccination)", "setting": "[1]; [6]", "result": "failed to induce immunogenic apoptosis"}]}
{"molecule": "tunicamycin", "values": [{"measurement": "immunogenicity of cell death (protection against tumour growth, anti-tumour vaccination)", "setting": "[1]; [6]", "result": "failed to induce immunogenic apoptosis"}]}
